Experimental data published in patent US20130012546A1 (priority 2009, published 2013).

Experiments:
Phytophthora infestans = type: in vivo; settings: tomato plants, preventive spray, 100 ppm of active ingredient, evaluated 7 days after inoculation
logP(HCOOH) by HPLC = type: physicochemical; settings: HPLC on reversed phase columns, pH 2.7, 0.1% formic acid in water / acetonitrile, linear gradient 10% to 95% acetonitrile; EEC directive 79/831 Annex V.A8

Work on `CON=C(C(=O)Nc1cccc(CON=C(c2ccccc2)c2nnnn2C)n1)c1ccc(Cl)cc1Cl` [Example 1] yielded an Efficacy % (Phytophthora infestans) of 95% and a log p (logP(HCOOH) by HPLC) of 4.7.
Compound `CON=C(C(=O)Nc1cccc(CON=C(c2ccccc2)c2nnnn2C)n1)c1ccccc1Cl` [Example 2] has an Efficacy % (Phytophthora infestans) of 98% and a log p (logP(HCOOH) by HPLC) of 4.13.
In the case of `CON=C(C(=O)Nc1cccc(CON=C(c2ccccc2)c2nnnn2C)n1)c1ccc(Cl)cc1` [Example 3], the Efficacy % (Phytophthora infestans) is reported as 75% and the log p (logP(HCOOH) by HPLC) is reported as 4.51.
`C#CCOCC(=O)Nc1cccc(CON=C(c2ccccc2)c2nnnn2C)n1` [Example 4] showed an Efficacy % (Phytophthora infestans) of 85% and a log p (logP(HCOOH) by HPLC) of 2.8.
For `C=CCCCOCC(=O)Nc1cccc(CON=C(c2ccccc2)c2nnnn2C)n1` [Example 5], the Efficacy % (Phytophthora infestans) was 95% and the log p (logP(HCOOH) by HPLC) was 3.78.
`CON=C(C(=O)Nc1nc(CON=C(c2ccccc2)c2nnnn2C)cs1)c1ccc(Cl)cc1` [Example 7] gave an Efficacy % (Phytophthora infestans) of 95% and a log p (logP(HCOOH) by HPLC) of 4.27.
Work on `CON=C(C(=O)Nc1nc(CON=C(c2ccccc2)c2nnnn2C)cs1)c1ccc(Br)cc1` [Example 8] yielded an Efficacy % (Phytophthora infestans) of 93% and a log p (logP(HCOOH) by HPLC) of 4.37.
Work on `CON=C(C(=O)Nc1nc(CON=C(c2ccccc2)c2nnnn2C)cs1)c1ccc(Cl)cc1Cl` [Example 9] yielded an Efficacy % (Phytophthora infestans) of 95% and a log p (logP(HCOOH) by HPLC) of 4.41.
Work on `CON=C(C(=O)Nc1nc(CON=C(c2ccccc2)c2nnnn2C)cs1)c1cccc(Cl)c1Cl` [Example 11] yielded an Efficacy % (Phytophthora infestans) of 95% and a log p (logP(HCOOH) by HPLC) of 4.27.
`C#CCOCC(=O)Nc1nc(CON=C(c2ccccc2)c2nnnn2C)cs1` [Example 13] gave an Efficacy % (Phytophthora infestans) of 85% and a log p (logP(HCOOH) by HPLC) of 2.64.
In the case of `Cc1nnnn1C(=NOCc1cccc(NC(=O)OCCC2CCCCC2)n1)c1ccccc1` [Example 15], the Efficacy % (Phytophthora infestans) is reported as 95% and the log p (logP(HCOOH) by HPLC) is reported as 5.19.
`Cc1nnnn1C(=NOCc1cccc(NC(=O)OCC2CC2)n1)c1ccccc1` [Example 17] gave an Efficacy % (Phytophthora infestans) of 93% and a log p (logP(HCOOH) by HPLC) of 3.52.
In the case of `Cc1nnnn1C(=NOCc1cccc(NC(=O)OCCCC2CCCCC2)n1)c1ccccc1` [Example 19], the Efficacy % (Phytophthora infestans) is reported as 95% and the log p (logP(HCOOH) by HPLC) is reported as 5.62.
In the case of `Cc1nnnn1C(=NOCc1cccc(NC(=O)OCCCC2CCCC2)n1)c1ccccc1` [Example 21], the Efficacy % (Phytophthora infestans) is reported as 95% and the log p (logP(HCOOH) by HPLC) is reported as 5.25.
With `C#CCOCC(=O)Nc1cccc(CON=C(c2ccccc2)n2nnnc2C)n1` [Example 22] the Efficacy % (Phytophthora infestans) was 70% and the log p (logP(HCOOH) by HPLC) was 2.86.
`CON=C(C(=O)Nc1nc(CON=C(c2ccccc2)n2nnnc2C)cs1)c1ccc(Cl)cc1Cl` [Example 23] showed an Efficacy % (Phytophthora infestans) of 90% and a log p (logP(HCOOH) by HPLC) of 4.49.
Work on `Cc1nnnn1C(=NOCc1csc(NC(=O)OCCC2CCCCC2)n1)c1ccccc1` [Example 24] yielded an Efficacy % (Phytophthora infestans) of 88% and a log p (logP(HCOOH) by HPLC) of 4.8.
`Cc1nnnn1C(=NOCc1csc(NC(=O)OCC2CCCCC2)n1)c1ccccc1` [Example 25] gave an Efficacy % (Phytophthora infestans) of 93% and a log p (logP(HCOOH) by HPLC) of 4.41.
For `Cc1nnnn1C(=NOCc1csc(NC(=O)OCC2CC2)n1)c1ccccc1` [Example 26], the Efficacy % (Phytophthora infestans) was 70% and the log p (logP(HCOOH) by HPLC) was 3.27.
Work on `CON=C(C(=O)Nc1nc(CON=C(c2ccccc2)n2nnnc2C)cs1)c1ccccc1Cl` [Example 27] yielded an Efficacy % (Phytophthora infestans) of 85% and a log p (logP(HCOOH) by HPLC) of 3.92.
With `CON=C(C(=O)Nc1nc(CON=C(c2ccccc2)n2nnnc2C)cs1)c1ccc(Cl)cc1` [Example 28] the Efficacy % (Phytophthora infestans) was 80% and the log p (logP(HCOOH) by HPLC) was 4.32.
For `CC(C)=NOC(C)C(=O)Nc1cccc(CO/N=C(/c2ccccc2)c2nnnn2C)n1` (stereo not shown) [Example 32], the Efficacy % (Phytophthora infestans) was 70% and the log p (logP(HCOOH) by HPLC) was 3.25.
`CC(=NOCC(=O)Nc1cccc(CON=C(c2ccccc2)c2nnnn2C)n1)c1ccccc1` [Example 33] showed an Efficacy % (Phytophthora infestans) of 80% and a log p (logP(HCOOH) by HPLC) of 3.92.
`CC(=NOCC(=O)Nc1nc(CON=C(c2ccccc2)c2nnnn2C)cs1)C(C)(C)C` [Example 34] showed an Efficacy % (Phytophthora infestans) of 90% and a log p (logP(HCOOH) by HPLC) of 3.99.
Compound `CC(C)=NOC(C)C(=O)Nc1nc(CO/N=C(/c2ccccc2)c2nnnn2C)cs1` (stereo not shown) [Example 35] has an Efficacy % (Phytophthora infestans) of 95% and a log p (logP(HCOOH) by HPLC) of 3.11.
For `CC(=NOCC(=O)Nc1nc(CON=C(c2ccccc2)c2nnnn2C)cs1)c1ccccc1` [Example 36], the Efficacy % (Phytophthora infestans) was 95% and the log p (logP(HCOOH) by HPLC) was 3.76.
`CC(=NOCC(=O)Nc1nc(CON=C(c2ccccc2)n2nnnc2C)cs1)C(C)(C)C` [Example 37] gave an Efficacy % (Phytophthora infestans) of 88% and a log p (logP(HCOOH) by HPLC) of 4.04.
`CC(C)=NOC(C)C(=O)Nc1nc(CO/N=C(/c2ccccc2)n2nnnc2C)cs1` (stereo not shown) [Example 38] gave an Efficacy % (Phytophthora infestans) of 88% and a log p (logP(HCOOH) by HPLC) of 3.17.
`C=CCCOCC(=O)Nc1cccc(CO/N=C(/c2ccccc2)c2nnnn2C)n1` [Example 40] showed an Efficacy % (Phytophthora infestans) of 85% and a log p (logP(HCOOH) by HPLC) of 3.39.
For `C=CCCOC(C)C(=O)Nc1cccc(CO/N=C(/c2ccccc2)c2nnnn2C)n1` (stereo not shown) [Example 41], the Efficacy % (Phytophthora infestans) was 100% and the log p (logP(HCOOH) by HPLC) was 3.69.
Work on `C=CCCOC(C)C(=O)Nc1nc(CO/N=C(/c2ccccc2)n2nnnc2C)cs1` (stereo not shown) [Example 43] yielded an Efficacy % (Phytophthora infestans) of 95% and a log p (logP(HCOOH) by HPLC) of 3.53.
With `C=CCCOCC(=O)Nc1nc(CO/N=C(/c2ccccc2)n2nnnc2C)cs1` [Example 44] the Efficacy % (Phytophthora infestans) was 93% and the log p (logP(HCOOH) by HPLC) was 3.23.
With `C#CCOC(C)C(=O)Nc1cccc(CO/N=C(/c2ccccc2)c2nnnn2C)n1` (stereo not shown) [Example 50] the Efficacy % (Phytophthora infestans) was 95% and the log p (logP(HCOOH) by HPLC) was 3.04.
Compound `C#CCOC(C)C(=O)Nc1cccc(CO/N=C(/c2ccccc2)n2nnnc2C)n1` (stereo not shown) [Example 52] has an Efficacy % (Phytophthora infestans) of 93% and a log p (logP(HCOOH) by HPLC) of 3.11.
`Cc1nnnn1/C(=N\OCc1csc(NC(=O)OC(C)CC2CC2)n1)c1ccccc1` (stereo not shown) [Example 56] showed an Efficacy % (Phytophthora infestans) of 95% and a log p (logP(HCOOH) by HPLC) of 3.87.
Work on `Cn1nnnc1C(=NOCc1csc(NC(=O)OCC2CCCCC2)n1)c1ccccc1` [Example 61] yielded an Efficacy % (Phytophthora infestans) of 98% and a log p (logP(HCOOH) by HPLC) of 4.37.
Compound `Cn1nnnc1C(=NOCc1cccc(NC(=O)COC2CCCCC2)n1)c1ccccc1` [Example 77] has an Efficacy % (Phytophthora infestans) of 93% and a log p (logP(HCOOH) by HPLC) of 4.15.
Work on `Cc1nnnn1C(=NOCc1cccc(NC(=O)COC2CCCCC2)n1)c1ccccc1` [Example 79] yielded an Efficacy % (Phytophthora infestans) of 90% and a log p (logP(HCOOH) by HPLC) of 4.25.
For `Cn1nnnc1C(=NOCc1csc(NC(=O)COC2CCC2)n1)c1ccccc1` [Example 80], the Efficacy % (Phytophthora infestans) was 90% and the log p (logP(HCOOH) by HPLC) was 3.19.
`Cn1nnnc1C(=NOCc1cccc(NC(=O)COC2CCC2)n1)c1ccccc1` [Example 81] showed an Efficacy % (Phytophthora infestans) of 80% and a log p (logP(HCOOH) by HPLC) of 3.46.
For `Cc1nnnn1C(=NOCc1csc(NC(=O)COC2CCC2)n1)c1ccccc1` [Example 82], the Efficacy % (Phytophthora infestans) was 90% and the log p (logP(HCOOH) by HPLC) was 3.25.
Work on `Cc1nnnn1C(=NOCc1cccc(NC(=O)COC2CCC2)n1)c1ccccc1` [Example 83] yielded an Efficacy % (Phytophthora infestans) of 90% and a log p (logP(HCOOH) by HPLC) of 3.55.
With `Cn1nnnc1C(=NOCc1cccc(NC(=O)COC2CCCC2)n1)c1ccccc1` [Example 85] the Efficacy % (Phytophthora infestans) was 95% and the log p (logP(HCOOH) by HPLC) was 3.83.
`Cc1nnnn1C(=NOCc1cccc(NC(=O)COC2CCCC2)n1)c1ccccc1` [Example 87] gave an Efficacy % (Phytophthora infestans) of 90% and a log p (logP(HCOOH) by HPLC) of 3.92.
In the case of `Cc1nnnn1C(=NOCc1cccc(NC(=O)COC2CCCCCC2)n1)c1ccccc1` [Example 88], the Efficacy % (Phytophthora infestans) is reported as 95% and the log p (logP(HCOOH) by HPLC) is reported as 4.67.
With `Cn1nnnc1C(=NOCc1cccc(NC(=O)COC2CCCCCC2)n1)c1ccccc1` [Example 90] the Efficacy % (Phytophthora infestans) was 100% and the log p (logP(HCOOH) by HPLC) was 4.56.
Compound `Cn1nnnc1C(=NOCc1csc(NC(=O)OC2CC3CCC2(C)C3(C)C)n1)c1ccccc1` (stereo not shown) [Example 104] has an Efficacy % (Phytophthora infestans) of 93%.
With `Cn1nnnc1C(=NOCc1csc(NC(=O)OC2CC3CCC2(C)C3(C)C)n1)c1cccc(F)c1` (stereo not shown) [Example 105] the Efficacy % (Phytophthora infestans) was 80%.
